Experimental data taken from patent publication US10960013B2, “J-series prostaglandin-ethanolamides as novel therapeutics for skin and/or oral disorders” (East Carolina University, priority 2016, dated 2021).
“Also recorded” adds a separate entry of the source.

What was measured:
[1] = tested on: tumorigenic (JWF2) and non-tumorigenic (HaCaT) cells; assay: Cell viability (MTS) of tumorigenic and non-tumorigenic keratinocytes treated with 15dPMJ2; format: cell-based; details: 12 hours
Description: Tumorigenic and non-tumorigenic keratinocytes were treated with different concentrations of 15dPMJ2, vehicle, or were untreated for 12 hours. Cell viability was detected by conducting MTS experiments. Data represent the mean±SEM of three independent experiments and are expressed as the percent of the untreated cells. *P<0.01.
(§1) To assess the in vivo antineoplastic action of 15dPMJ2, the subcutaneous mouse tumor model was utilized. Melanoma cells were subcutaneously implanted in the flank region of C57BL/6 mice and treated with 0.5 mg/kg 15dPMJ2, vehicle [0.1% DMSO in phosphate buffered saline (PBS)], or were untreated. […] To determine if 15dPMJ2 induced ER stress the expression of CHOP10 was detected in the tumor sections.

[2] = tested on: Melanoma cells subcutaneously implanted in the flank region of C57BL/6 mice; assay: Subcutaneous mouse tumor model, tumor weight; format: in vivo; details: 0.5 mg/kg for 5 days; compared to vehicle and untreated animals; P<0.01
Description: Tumors grown in C57BL/6 mice were either untreated (UT), vehicle treated (VEH), or treated with 0.5 mg/kg 15dPMJ2 for 5 days. Tumor weights were determined. #P<0.01 compared to untreated; *P<0.01 compared to vehicle treated (one-way ANOVA with Tukey's post-hoc test).
as §1

CHOP10 = CHOP10 expression (ER stress) in excised tumor sections; format: in vivo, C57BL/6 mice; details: 0.5 mg/kg for 5 days
Description: as §1

Compound: CCCCC/C=C/C=C1/C(=O)C=CC1C/C=C/CCCC(=O)NCCO (stereo not shown) [15dPMJ2, 15-deoxy Δ^12,14-prostagladin J2-ethanolamide]
- toxicity towards tumorigenic keratinocytes relative to non-tumorigenic keratinocytes ([1]; at 5 μM, JWF2 vs HaCaT, MTS cell viability): 4 fold
- selective toxicity (cell viability, tumorigenic vs non-tumorigenic keratinocytes) ([1]; different concentrations, MTS): selectively toxic
- tumor weight / solid tumor growth [2]: statistically significant reduction in tumor weight; also recorded: inhibits solid tumor growth
- CHOP10 expression in the tumors (ER stress) (CHOP10): markedly increased CHOP10 expression; also recorded: increases ER stress
